Test results as given in paper PMC12029179, “6-Chlorocoumarin Conjugates with Nucleobases and Nucleosides as Potent Anti-Hepatitis C Virus Agents” (Molecules, 2025).
Read-outs that look alike come from different tables or passages of the source. Numbered stars: 1 amine (or outer) side, 2 acyl side, 3 side chain; on linkers, the order of the positions; unused ones are H or OH. Bridge positions count the residues as written; N and C are the ends. Square brackets hold non-standard residues; d marks the D form. Peptide text beside a SMILES is read from it. I, II: the chains in the order shown. Actinocin(9to1) = Cc1c2oc3c(C)ccc(C(=O)[*:1])c3nc-2c(C(=O)[*:2])c(N)c1=O; NMeV = CN[C@H](C(=O)O)C(C)C; Sar = CNCC(=O)O

What was measured:
Detroit 551 cells = experiment: Cell viability (MTS) assay in Detroit 551 cells; assay type: cell-based; details: for IC50: Homo sapiens, read-out: IC50 (cell survival rate of 50%); for cell death at highest tested concentration: 20 μM
Description: Detroit 551 cells, a human fibroblast cell line, are routinely employed to assess both acute and chronic toxicity in normal human cells. Evaluating the cytotoxicity of compounds in Detroit 551 cells helps to identify potential safety concerns early in drug development. The three promising leads, 7a, 7b, and 18, were tested in a Detroit 551 assay using the antineoplastic and antibiotic agent actinomycin D as a positive control.
Detroit 551 cells were harvested and seeded into a 96-well plate, then incubated at 37 °C for 24 h. A serial dilution of the test compound was prepared in eight three-fold concentrations (20,000 nM, 6667 nM, 2222 nM, 741 nM, 247 nM, 82 nM, 27 nM, and 9 nM), and 10 µL of each dilution was added to the corresponding wells. The plate was then returned to 37 °C for an additional 72 h of incubation. After this incubation, a 3-(4,5-dimethylthiazol-2-yl)-5-(3-carboxymethoxyphenyl)-2-(4-sulfophenyl)-2H-tetrazolium (MTS) assay medium (mixed in a 2:0.1 ratio of MTS–phenazine methyl sulfate (PMS)) was prepared. The plate was moved to a biological safety cabinet, and 21 µL of the MTS medium was added to each well. The plate was then incubated at 37 °C for 90 min before absorbance was measured at 490 nm on a Victor 2 plate reader (PerkinElmer, Inc., Waltham, MA, USA). Data were subsequently analyzed to assess cytotoxicity.

Huh 9-13 cells = experiment: Host-cell metabolic activity in Huh 9-13 cells; assay type: cell-based
[1] = Host-cell metabolic activity in Huh 9-13 cells; assay type: cell-based; details: human
[2] = Host-cell metabolic activity (MTS assay) in Huh 5-2 cells; assay type: cell-based; details: human
Description: (§1) An evaluation of the antiviral effects of the conjugated compounds was initially performed in Huh 5-2 cells utilizing the HCV genotype 1b subgenomic replicon system, based on previously reported procedures. By analyzing the dose–response curves, we calculated the concentration of each compound that inhibited the viral replication by 50% (EC50) and the concentration that reduced the host-cell metabolic activity by 50% (CC50). These values were then used to compute the selectivity index (SI = CC50/EC50), which serves as an indicator of a compound’s therapeutic window. Even if an EC50 was determined from the dose–response curve in the antiviral assay, the compounds that were evaluated may not qualify as promising hits. […] It is likely that the antiviral activity observed in the other compounds is due to their nonspecific or pleiotropic effects on the host cell.

HCV subgenomic replicon = experiment: Anti-HCV assay in Huh 9-13 cells (real-time quantitative RT-PCR of replicon RNA); assay type: cell-based, hepatitis C virus (HCV); details: for % replicon RNA: normalized against no-drug control; for EC50: Hepatitis C virus
Description: Furthermore, the antiviral activity of three of the hits (i.e., 7a, 7b, and 18) was validated by evaluation of the dose–response effect of treatment with the compounds at the level of viral RNA replication in the Huh 9-13 assay system. The real-time quantitative RT-PCR readout was used.
Huh 9-13 cells were seeded at 5 × 10^3 cells per well into 96-well plates containing complete DMEM supplemented with 1000 µg/mL G418. […] After 4 days of incubation, the culture medium was removed, and the cell monolayers were washed once with phosphate-buffered saline (PBS). Cells were then lysed using 350 µL of RLT buffer (Qiagen, Venlo, The Netherlands) as per the manufacturer’s protocol, and the lysates were stored at −80 °C for future analysis. Upon completion of sample collection, RNA was extracted, and the samples were analyzed through quantitative real-time PCR to measure their HCV replicon content. The real-time RT-PCR data for all samples were calibrated against the “no-drug control”.
* After collection of all samples, RNA was extracted and samples were analyzed by quantitative real-
time PCR for their HCV replicon content. Real-time RT-PCR values of all assayed samples were
normalized against the “no-drug control”.

[3] = tested on: HCV genotype 1b subgenomic replicon; experiment: Anti-HCV assay in Huh 5-2 cells (luciferase replicon readout); assay type: cell-based, hepatitis C virus (HCV); details: for EC50: Hepatitis C virus, Huh-5-2, Huh 5-2 cells, luminescence; for SI (CC50/EC50): Huh 5-2 cells
Description: as §1
Huh 5-2 cells were plated in white, tissue culture-treated 96-well view plates (Packard, Canberra, Canada) at a density of 5 × 10^3 cells per well, using complete Dulbecco’s Modified Eagle Medium (DMEM) containing 250 µg/mL G418. Following 24 h incubation at 37 °C with 5% CO2, the medium was discarded and serial 3-fold dilutions of the test compounds—prepared in complete DMEM lacking G418—were added to reach a final volume of 100 µL per well. After an additional 4-day incubation period under the same conditions, the medium was removed, and luciferase activity was assessed using the Steady-Glo luciferase assay kit (Promega, Leiden, The Netherlands). Luminescence was measured with a Luminoskan Ascent reader (Thermo, Vantaa, Finland). The EC50 value was determined as the compound concentration resulting in a 50% decrease in luciferase signal.

[4] = Detroit 551 cells, 72 h incubation, tested starting at 20.0 μM
[5] = compound 18 tested starting at 125 µg/mL
[6] = primary screening, tested starting at 50 μg/mL
[7] = secondary screen starting at 125 μg/mL
[8] = real-time quantitative RT-PCR readout
[9] = secondary screen starting at 125 μg/mL, average of triplicate
[10] = primary screening starting at 50 μg/mL

| SMILES | cell death at highest tested concentration (Detroit 551 cells; Detroit 551 cells) | IC50 (Detroit 551 cells; [4]) | % cell metabolism (Huh 9-13 cells; 0.023 µg/ml) | % cell metabolism (Huh 9-13 cells; 0.069 µg/ml) | % cell metabolism (Huh 9-13 cells; 0.206 µg/ml) | % cell metabolism (Huh 9-13 cells; 0.617 µg/ml) | % cell metabolism (Huh 9-13 cells; 5.56 µg/ml) | % cell metabolism (Huh 9-13 cells; 16.67 µg/ml) | % cell metabolism (Huh 9-13 cells; 50 µg/ml) | % cell metabolism (Huh 9-13 cells; 1.852 (7b: 1.85) µg/ml) | CC50 [1, 5] | CC50 ([1]; supplement dose-response data) | CC50 [2, 6] | CC50 [2, 7] | SI (CC50/EC50) (HCV subgenomic replicon) | Quantity (HCV replicon RNA, real-time PCR) (HCV subgenomic replicon; 0.023 µg/ml) | % replicon RNA (HCV subgenomic replicon; 0.023 µg/ml) | Quantity (HCV replicon RNA, real-time PCR) (HCV subgenomic replicon; 0.069 µg/ml) | % replicon RNA (HCV subgenomic replicon; 0.069 µg/ml) | Quantity (HCV replicon RNA, real-time PCR) (HCV subgenomic replicon; 0.206 µg/ml) | other results |
| --- | --- | --- | --- | --- | --- | --- | --- | --- | --- | --- | --- | --- | --- | --- | --- | --- | --- | --- | --- | --- | --- |
| Cc1c2oc3c(C)ccc(C(=O)N[C@@H]4C(=O)N[C@H](C(C)C)C(=O)N5CCC[C@H]5C(=O)N(C)CC(=O)N(C)[C@@H](C(C)C)C(=O)O[C@@H]4C)c3nc-2c(C(=O)N[C@@H]2C(=O)N[C@H](C(C)C)C(=O)N3CCC[C@H]3C(=O)N(C)CC(=O)N(C)[C@@H](C(C)C)C(=O)O[C@@H]2C)c(N)c1=O [Actinomycin D, actinomycin D, reference compound] (I: T[dV]P[Sar][NMeV] / II: T[dV]P[Sar][NMeV]; ester I:1-I:C, II:1-II:C; linker I:N-II:N via Actinocin(9to1)) | – | – | – | – | – | – | – | – | – | – | – | – | – | – | – | – | – | – | – | – | IC50 (Detroit 551 cells; Detroit 551, 72 h): 15.4 µM |
| O=c1oc2ccc(Cl)cc2cc1CSc1ncnc2[nH]cnc12 [Compound 7a, 6-[(6′-Chlorocoumarin-3′-yl)methylthio]purine] | none of the three compounds induced cell death | > 20 µM | 109% | 104% | 109% | 105% | 112% | 115% | 92% | 109% | > 145 µM | > 50 µg/mL | > 145 µM | > 363 µM | >20 | 1.12E-04 | 93% | 1.44E-04 | 119% | 1.36E-04 | % replicon RNA (HCV subgenomic replicon; 0.206 µg/ml): 112%; Quantity (HCV replicon RNA, real-time PCR) (HCV subgenomic replicon; 0.617 µg/ml): 8.96E-05; % replicon RNA (HCV subgenomic replicon; 0.617 µg/ml): 74%; Quantity (HCV replicon RNA, real-time PCR) (HCV subgenomic replicon; 5.56 µg/ml): 2.70E-05; % replicon RNA (HCV subgenomic replicon; 5.56 µg/ml): 22%; Quantity (HCV replicon RNA, real-time PCR) (HCV subgenomic replicon; 16.67 µg/ml): 1.20E-05; % replicon RNA (HCV subgenomic replicon; 16.67 µg/ml): 10%; Quantity (HCV replicon RNA, real-time PCR) (HCV subgenomic replicon; 50 µg/ml): 4.54E-06; % replicon RNA (HCV subgenomic replicon; 50 µg/ml): 4%; Quantity (HCV replicon RNA, real-time PCR) (HCV subgenomic replicon; 1.852 (7b: 1.85) µg/ml): 7.41E-05; % replicon RNA (HCV subgenomic replicon; 1.852 (7b: 1.85) µg/ml): 61%; EC50 (HCV subgenomic replicon; [8]): 7.3 µM; EC50 (HCV subgenomic replicon; supplement dose-response data): 2.5 µg/mL; EC50 [3, 6]: 8.6 µM; EC50 [3, 9]: 4.8 µM; SI (CC50/EC50) [3, 10]: >17; SI (CC50/EC50) [3, 7]: >76 |
| O=c1oc2ccc(Cl)cc2cc1CSc1ncnc2c1ncn2[C@@H]1O[C@H](CO)[C@@H](O)[C@H]1O [Compound 7b, 6-(6′-Chlorocoumarin-3′-yl)methylthio-9-(β-D-ribofuranos-1″-yl)purine] | none of the three compounds induced cell death | > 20 µM | 100% | 107% | 102% | 108% | 115% | 113% | 94% | 106% | > 105 µM | > 50 µg/mL | > 105 µM | > 262 µM | >16 | 1.11E-04 | 92% | 1.33E-04 | 110% | 2.07E-04 | % replicon RNA (HCV subgenomic replicon; 0.206 µg/ml): 171%; Quantity (HCV replicon RNA, real-time PCR) (HCV subgenomic replicon; 0.617 µg/ml): 1.03E-04; % replicon RNA (HCV subgenomic replicon; 0.617 µg/ml): 85%; Quantity (HCV replicon RNA, real-time PCR) (HCV subgenomic replicon; 5.56 µg/ml): 2.85E-05; % replicon RNA (HCV subgenomic replicon; 5.56 µg/ml): 24%; Quantity (HCV replicon RNA, real-time PCR) (HCV subgenomic replicon; 16.67 µg/ml): 1.64E-05; % replicon RNA (HCV subgenomic replicon; 16.67 µg/ml): 14%; Quantity (HCV replicon RNA, real-time PCR) (HCV subgenomic replicon; 50 µg/ml): 3.63E-06; % replicon RNA (HCV subgenomic replicon; 50 µg/ml): 3%; Quantity (HCV replicon RNA, real-time PCR) (HCV subgenomic replicon; 1.852 (7b: 1.85) µg/ml): 9.12E-05; % replicon RNA (HCV subgenomic replicon; 1.852 (7b: 1.85) µg/ml): 75%; EC50 (HCV subgenomic replicon; [8]): 6.6 µM; EC50 (HCV subgenomic replicon; supplement dose-response data): 3.17 µg/mL; EC50 [3, 6]: 8.8 µM; EC50 [3, 9]: 5.6 µM; SI (CC50/EC50) [3, 10]: >12; SI (CC50/EC50) [3, 7]: >47 |
